Broadly, the IC50 is the concentration needed to halve the response being measured.

The structures appear in SMILES notation. Where only a bound is given, the exact number is not on record here.

The assay deals with T1, partially purified rat brain farnesyl protein transferase (FPT) (Rattus norvegicus, UniProt Q02293+Q04631).
T1 construct: partially purified rat brain farnesyl protein transferase (FPT); from tissue; host or cells: rat brain
In words: In vitro enzyme assay: inhibition of Ras-CVLS farnesylation by farnesyl protein transferase. The assay is classed as biochemical. The method, then:
1. In vitro enzyme assays: FPT IC50 (inhibition of farnesyl protein transferase, in vitro enzyme assay) are determined by the methods disclosed in WO/10515 or WO 95110516.
In turn, `COc1ccc2c(c1)CCc1cc(Br)cnc1C2N1CCN(C(=O)Cc2cc[n+]([O-])cc2)CC1` (racemic) [Example 17, (+,−)-1-(3-Bromo-6,11-dihydro-8-methoxy-5H-benzo[5,6]cyclohepta[1 ,2-b]pyridin-11-yl)-4-(4-pyridinylacetyl)piperazine N4-oxide] displayed an IC50 of 290 nM.

In turn, `C=Cc1cnc2c(c1)CCc1cc(C)cc(OC)c1C2C1CCN(S(C)(=O)=O)CC1` (stereo not drawn) [Example 28, 4-(3-Ethenyl-6,11-dihydro-10-methoxy-8-methyl-5H-benzo[5,6]cyclohepta[1,2-b]pyridin-11-yl)-1-(methylsulfonyl)piperidine] had an IC50 of 132 nM. Compared with the last molecule, the IC50 is about 2.2-fold lower.

`Cc1cc(C)c2c(c1)CCc1cc(Br)cnc1C2N1CCN(C(=O)Cc2cc[n+]([O-])cc2)CC1` (racemic) [Example 18, (+,−)-1-(3-Bromo-6,11-dihydro-8,10-dimethyl-5H-benzo[5,6]cyclohepta[1,2-b]pyridin-11-yl)-4-(4-pyridinylacetyl)piperazine N4-oxide] yielded an IC50 of 43 nM.

`COc1cc(C)cc2c1C(N1CCN(C(=O)Cc3cc[n+]([O-])cc3)CC1)c1ncc(Br)cc1CC2` (single isomer, unassigned; (+)) [Example 20, (+)-1-(3-Bromo-10-methoxy-8-methyl-6,11-dihydro-5H-benzo[5,6]cyclohepta[1,2-b]pyridin-11-yl)-4-(4-pyridinylacetyl)piperazine N4-oxide, (+) enantiomer] yielded an IC50 above 180 nM.

With `C=Cc1cnc2c(c1)CCc1cc(C)cc(OC)c1C2C1CCN(C(=O)Cc2cc[n+]([O-])cc2)CC1` (stereo not drawn) [Example 27, 4-(3-Ethenyl-6,11-dihydro-10-methoxy-8-methyl-5H-benzo[5,6]cyclohepta[1,2-b]pyridin-11-yl)-1-(4-pyridinylacetyl)piperidine N1-Oxide], the IC50 came to 59 nM.

As for `COc1cc(C)cc2c1C(C1CCN(C(=O)Cc3cc[n+]([O-])cc3)CC1)c1ncc(C3CC3)cc1CC2` (racemic) [Example 32], the IC50 is above 200 nM.

Consider `COc1cc2c(c(OC)c1)C(N1CCN(C(=O)Cc3cc[n+]([O-])cc3)CC1)c1ncc(Br)cc1CC2` (stereo not drawn) [Example 1, 1-(3-Bromo-6,11-dihydro-8,10-dimethoxy-5H-benzo[5,6]cyclohepta[1,2-b]pyridin-11-yl)-4-(4-pyridinylacetyl)piperazine N4-oxide], for which the IC50 is 67 nM. This lies in the double-digit nanomolar range.

In turn, `Cc1cc(Br)c2c(c1)CCc1cc(Br)cnc1C2(O)C1CCN(C(=O)Cc2cc[n+]([O-])cc2)CC1` (single isomer, unassigned; (-)) [Example 36, (−) 4-(3-Bromo-6,11-dihydro-11-hydroxy-10-bromo-8-methyl-5H-benzo[5,6]cyclohepta[1,2-b]pyridin-11-yl)-1-(4-pyridinylacetyl)piperidine N1-Oxide] returned an IC50 of 5.4 nM.

In turn, `Cc1cc(O)c2c(c1)CCc1cc(Br)cnc1C2=C1CCN(C(=O)Cc2cc[n+]([O-])cc2)CC1` [Example 6, (+,−)-4-(3-Bromo-10-hydroxy-8-methyl--5,6-dihydro-11H-benzo[5,6]cyclohepta[1,2-b]pyridin-11-ylidene)-1-(4-pyridinylacetyl)piperidine N1-oxide] had an IC50 of 45 nM.

The molecule `Cc1cc(Br)c2c(c1)CCc1cc(Br)cnc1C2(O)C1CCN(C(=O)Cc2cc[n+]([O-])cc2)CC1` (single isomer, unassigned; (+)) [Example 35, (+) 4-(3-Bromo-6,11-dihydro-11-hydroxy-10-bromo-8-methyl-5H-benzo[5,6]cyclohepta[1,2-b]pyridin-11-yl)-1-(4-pyridinylacetyl)piperidine N1-Oxide] returned an IC50 of 10.8 nM.

`COc1cc(C)cc2c1C(N1CCN(C(=O)Cc3cc[n+]([O-])cc3)CC1)c1ncc(Br)cc1CC2` (racemic) [Example 10, (+,−)-1-(3-Bromo-10-methoxy-8-methyl-6,11-dihydro-5H-benzo[5,6]cyclohepta[1,2-b]pyridin-1 1-yl)-4-(4-pyridinylacetyl)piperazine N4-oxide] displayed an IC50 of 16 nM. This IC50 and that of the molecule before are within 1.5-fold of each other.

For `COc1cc(C)c(Cl)c2c1C(=C1CCN(C(=O)Cc3cc[n+]([O-])cc3)CC1)c1ncccc1CC2` [Example 5, (+,−)-4-(7-Chloro-5,6-dihydro-8-methyl-10-methoxy-11H-benzo[5,6]cyclohepta[1,2-b]pyridin-11-ylidene)-1-(4-pyridinylacetyl)piperidine N1-oxide], the IC50 is above 200 nM.

As for `Cc1cc(Br)c2c(c1)CCc1cc(Br)cnc1C2C1CCN(C(=O)Cc2cc[n+]([O-])cc2)CC1` (single isomer, unassigned; (+)) [Example 33, (+) 4-(3-Bromo-6,11-dihydro-10-bromo-8-methyl-5H-benzo[5,6]cyclohepta[1,2-b]pyridin-11-yl)-1-(4-pyridinylacetyl)piperidine N1 -Oxide], half-maximal inhibition (IC50) was put at 1.2 nM.

For `COc1cc(C)cc2c1C(N1CCN(C(=O)Cc3cc[n+]([O-])cc3)CC1)c1ncc(Br)cc1CC2` (single isomer, unassigned; (-)) [Example 19, (−)-1-(3-Bromo-10-methoxy-8-methyl-6,11-dihydro-5H-benzo[5,6]cyclohepta[1,2-b]pyridin-11-yl)-4-(4-pyridinylacetyl)piperazine N4-oxide, (−) enantiomer], half-maximal inhibition (IC50) required 4.2 nM.

`COc1cc(C)cc2c1C(C1CCN(C(=O)Cc3cc[n+]([O-])cc3)CC1)c1ncc(Br)cc1CC2` (racemic) [Example 3, (+,−)-4-(3-Bromo-10-methoxy-8-methyl-6,11-dihydro-5H-benzo[5,6]cyclohepta[1,2-b]pyridin-11-yl)-1-(4-pyridinylacetyl)piperidine N1-oxide] registered an IC50 of 3.2 nM.

In the case of `Cc1cc(O)c2c(c1)CCc1cc(Br)cnc1C2C1CCN(C(=O)Cc2cc[n+]([O-])cc2)CC1` (racemic) [Example 9, (+,−)-4-(3-Bromo-10-hydroxy-8-methyl-5,6-dihydro-11H-benzo[5,6]cyclohepta[1,2-b]pyridin-11-yl)-1-(4-pyridinylacetyl)piperidine N1-oxide], the midpoint of inhibition, the IC50, lay at 120 nM.

Turning to `Cc1ccc(C)c2c1CCc1cc(Br)cnc1C2N1CCN(C(=O)Cc2cc[n+]([O-])cc2)CC1` (racemic) [Example 15, (+,−)-1-(3-Bromo-7,10-dimethyl-6,11-dihydro-5H-benzo[5,6]cyclohepta[1,2-b]pyridin-11-yl)-4-(4-pyridinylacetyl)piperazine N4-oxide], the IC50 was 130 nM.

In turn, `Cc1cccc2c1CCc1cc(Br)cnc1C2N1CCN(C(=O)Cc2cc[n+]([O-])cc2)CC1` (racemic) [Example 14, (+,−)-1-(3-Bromo-7-methyl-6,11-dihydro-5H-benzo[5,6]cyclohepta[1,2-b]pyridin-11-yl)-4-(4-pyridinylacetyl)piperazine N4-oxide] displayed an IC50 of 110 nM. The IC50 values of the last two molecules are within 1.5-fold of each other.

The molecule `COc1cc(C)cc2c1C(C1CCN(C(=O)Cc3cc[n+]([O-])cc3)CC1)c1ncccc1CC2` (racemic) [Example 4, (+,−)-4-(6,11-dihydro-10-methoxy-8-methyl-5H-benzo[5,6]cyclohepta[1,2-b]pyridin-11-yl)-1-(4-pyridinylacetyl)piperidine N-1 oxide] gave an IC50 of 140 nM.

The molecule `COc1cc(C)cc2c1C(=C1CCN(C(=O)Cc3cc[n+]([O-])cc3)CC1)c1ncc(C)cc1CC2` [Example 7, 4-(5,6-dihydro-10-methoxy-3,8-dimethyl-11H-benzo[5,6]cyclohepta[1,2-b]pyridin-11-ylidene)-1-(4-pyridinylacetyl)piperidine N1-oxide] showed an IC50 of 60 nM. This IC50 is about 2.3-fold lower than that of the molecule before.

The molecule `COc1cc(C)c2c(c1)CCc1cc(Br)cnc1C2N1CCN(C(=O)Cc2cc[n+]([O-])cc2)CC1` (racemic) [Example 26, (+,−)-1-(3-Bromo-8-methoxy-10-methyl-6,11-dihydro-5H-benzo[5,6]cyclohepta[1 ,2-b]pyridin-11-yl)-4-(4-pyridinylacetyl)piperzazine N4-oxide] came in with an IC50 of 58 nM.

With `CCc1cnc2c(c1)CCc1cc(C)cc(OC)c1C2C1CCN(C(=O)Cc2cc[n+]([O-])cc2)CC1` (stereo not drawn) [Example 29, 4-(3-Ethyl-6,11-dihydro-10-methoxy-8-methyl-5H-5 benzo[5,6]cyclohepta[1,2-b]pyridin-11-yl)-1-(4-pyridinylacetyl)piperidine, N1-Oxide], the IC50 worked out at 74 nM.

`COc1cc(C)cc2c1C(C1CCN(C(=O)Cc3cc[n+]([O-])cc3)CC1)c1ncc(C)cc1CC2` (stereo not drawn) [Example 2, 4-(6,11-dihydro-10-methoxy-3,8-dimethyl-5H-benzo[5,6]cyclohepta[1,2-b]pyridin-11-yl)-1-(4-pyridinylacetyl)piperidine N1-15 oxide] registered an IC50 of 34 nM.

As for `Cc1ccc2c(c1)CCc1cc(Br)cnc1C2N1CCN(C(=O)Cc2cc[n+]([O-])cc2)CC1` (racemic) [Example 16, (+,−)-1-(3-Bromo-8-methyl-6,11-dihydro-5H-benzo[5,6]cyclohepta[1,2-b]pyridin-11-yl)-4-(4-pyridinylacetyl)piperazine N4-oxide], it took 64 nM to reach half-maximal inhibition (IC50).

`Cc1cc(Br)c2c(c1)CCc1cc(Br)cnc1C2C1CCN(C(=O)Cc2cc[n+]([O-])cc2)CC1` (single isomer, unassigned; (-)) [Example 34, (−) 4-(3-Bromo-6,11-dihydro-10-bromo-8-methyl-5H-benzo[5,6]cyclohepta[1,2-b]pyridin-11-yl)-1-(4-pyridinylacetyl)piperidine N1-Oxide] showed an IC50 above 16 nM.

Molecule `Cc1cc(Br)cc2c1C(N1CCN(C(=O)Cc3cc[n+]([O-])cc3)CC1)c1ncc(Br)cc1CC2` (racemic) [Example 22, (+,−)-1-(3,8-Dibromo-6,11-dihydro-10-methyl-5H-benzo[5,6]cyclohepta[1,2-b]pyridin-11-yl)-4-(4-pyridinylacetyl)piperazine N4-oxide] displayed an IC50 of 9.9 nM.

In the case of `Cc1cc(Br)c2c(c1)CCc1cc(Br)cnc1C2=C1CCN(C(=O)Cc2cc[n+]([O-])cc2)CC1` [Example 37, -(3-Bromo-5,6-dihydro-10-bromo-8-methyl-11H-benzo[5,6]cyclohepta[1,2-b]pyridin-11-ylidene)-1-(4-pyridinylacetyl)piperidine N1-Oxide], half-maximal inhibition (IC50) was put at 5.4 nM.

For the origin of these results see patent US6440989B2, “Phenyl-substituted tricyclic inhibitors of farnesyl-protein transferase” (Schering Corporation, priority 1997, dated 2002).
